Data on 17 compounds can be found in US7910611B2, “Therapeutic agent for restenosis” (Kyowa Hakko Kirin Co., Ltd., priority 2005, dated 2011).

Data set [1] deals with normal human aortic smooth muscle cells. The data set is described as follows: Cell growth inhibition tests against human vascular smooth muscle cells (XTT). Particulars: for GI50: read-out: growth inhibitory activity in terms of the GI50 value (concentration of 50% growth inhibition), cultured 72 hours with test compound, XTT, absorbance at 490 nm. It counts as cell-based. The procedure: Cell Growth Inhibition Tests Against Human Vascular Smooth Muscle Cells
As human vascular smooth muscle cells, normal human aortic smooth muscle cells (Cambrex, catalog No. C-2571) were used. HuMedia-SB2 basal medium (Kurabo Industries, Ltd., catalog No. KS-2150S) containing 5% fetal bovine serum (Kurabo Industries, Ltd., catalog No. KS-6150), 0.5 ng/mL human recombinant epidermal growth factor (Kurabo Industries, Ltd., catalog No. KS-6150), 2 ng/mL human recombinant basic fibroblast growth factor (Kurabo Industries, Ltd., catalog No. KS-6150), 5 μg/mL insulin (Kurabo Industries, Ltd., catalog number KS-6150), 50 μg/mL gentamycin (Kurabo Industries, Ltd., catalog No. KS-6150), and 50 ng/mL amphotericin B (Kurabo Industries, Ltd., catalog No. KS-6150) was used for cell culture. The cells were cultured at 37° C. in a 5% carbon dioxide atmosphere.
The normal human aortic smooth muscle cells (1000 cells/well) were seeded in each well of 96-well plates (Nunc, catalog No. 167008), and cultured overnight. Test compounds diluted stepwise were added, and the cells were further cultured for 72 hours (final volume: 100 μL/well). Fifty μL XTT labeling mixture of Cell Proliferation Kit II (XTT) (Roche Diagnostics, catalog No. 1465015) was added to each well, and the plates were incubated at 37° C. After 4 hours, absorbance at 490 nm (reference wavelength: 655 nm) was measured with a plate reader (Molecular Device, SpectraMax 340PC^384). Growth ratios of the cells in the wells treated with the test compound was calculated based on the growth ratio of the cells in the control well treated with solvent (dimethyl sulfoxide (DMSO)) for 72 hours, which was defined as 100%.

Counter-ions that a name gives are not always drawn.

One may read the melting point as the temperature of the solid-liquid transition.

For the compound `CC(C)(C)C(=O)NC1=NN(C(=O)C(C)(C)C)C(CN)(c2ccccc2)S1` (stereo not shown) [Compound j, N-[5-Aminomethyl-4-(2,2-dimethylpropionyl)-5-phenyl-4,5-dihydro-1,3,4-thiadiazol-2-yl]-2,2-dimethylpropanamide], the GI50 in data set [1] was less than 10 µM.

In turn, `CN(C)CCS(=O)(=O)NCC1(c2ccccc2)SC(NC(=O)C(C)(C)C)=NN1C(=O)C(C)(C)C` (single isomer, unassigned; (-)) [Compound m, (−)-N-[5-(2-Dimethylaminoethanesulfonylaminomethyl)-4-(2,2-dimethylpropionyl)-5-phenyl-4,5-dihydro-1,3,4-thiadiazol-2-yl]-2,2-dimethylpropanamide] gave a melting point of 101 to 104 °C. In addition, the “inhibitory activity compared with the corresponding racemic mixture (Compound 12)” value in data set [1] (optically active compound versus racemic mixture) is recorded as “more potent inhibitory activities”. Moreover, in data set [1], the GI50 is less than 10 µM.

`CC(C)(C)C(=O)NC1=NN(C(=O)C(C)(C)C)C(CCCC(=O)NCCO)(c2ccccc2)S1` (stereo not shown) [Compound o, 4-[3-(2,2-Dimethylpropionyl)-5-(2,2-dimethylpropionylamino)-2-phenyl-2,3-dihydro-1,3,4-thiadiazol-2-yl]-N-(2-hydroxyethyl)butanamide]: in data set [1], the GI50 was less than 10 µM.

Take `CC(C)C(=O)N1N=C(NC(=O)C(C)(C)C)SC1(CCNS(C)(=O)=O)c1ccccc1` (single isomer, unassigned; (-)) [Compound d, (−)-N-[4-Isobutyryl-5-(2-methanesulfonylaminoethyl)-5-phenyl-4,5-dihydro-1,3,4-thia-diazol-2-yl]-2,2-dimethylpropanamide]: the GI50 in data set [1] is less than 10 µM.

Compound `CN(C)CCCS(=O)(=O)NCC1(c2ccccc2)SC(NC(=O)C(C)(C)C)=NN1C(=O)C(C)(C)C` (single isomer, unassigned; (-)) [Compound n, (−)-N-[5-(3-Dimethylaminopropanesulfonylaminomethyl)-4-(2,2-dimethylpropionyl)-5-phenyl-4,5-dihydro-1,3,4-thiadiazol-2-yl]-2,2-dimethylpropanamide] yielded a melting point of 92 to 95 °C. The GI50 in data set [1] is less than 10 µM.

Compound `CC(=O)N1N=C(N2CCCC2=O)SC1(CCNS(C)(=O)=O)c1ccccc1` (stereo not shown) [Compound g, N-{2-[3-Acetyl-5-(2-oxopyrrolidin-1-yl)-2-phenyl-2,3-dihydro-1,3,4-thiadiazol-2-yl]-ethyl}methanesulfonamide] gave a melting point of 137 to 140 °C.

With `CC(C)(C)C(=O)N1N=C(N2CCCC2=O)SC1(CCNS(C)(=O)=O)c1ccccc1` (single isomer, unassigned; (-)) [Compound c, (−)-N-{2-[3-(2,2-Dimethylpropionyl)-5-(2-oxopyrrolidin-1-yl)-2-phenyl-2,3-dihydro-1,3,4-thiadiazol-2-yl]ethyl}methanesulfonamide], the melting point was in the range of 107 to 110 °C.

Turning to `CC(=O)N1N=C(NC(=O)C(C)(C)C)SC1(CCNS(C)(=O)=O)c1ccccc1` (single isomer, unassigned; (-)) [Compound f, (−)-N-[4-Acetyl-5-(2-methanesulfonylaminoethyl)-5-phenyl-4,5-dihydro-1,3,4-thiadiazol-2-yl]-2,2-dimethylpropanamide], the melting point lay within 187 to 190 °C.

Turning to `C=CS(=O)(=O)NCC1(c2ccccc2)SC(NC(=O)C(C)(C)C)=NN1C(=O)C(C)(C)C` (stereo not shown) [Compound k, N-[4-(2,2-Dimethylpropionyl)-5-ethenesulfonylaminomethyl-5-phenyl-4,5-dihydro-1,3,4-thiadiazol-2-yl]-2,2-dimethylpropanamide], the GI50 in data set [1] is less than 10 µM.

Regarding `CCNCCS(=O)(=O)NCCC1(c2ccccc2)SC(NC(=O)C(C)(C)C)=NN1C(=O)C(C)(C)C` (stereo not shown) [Compound i, N-{4-(2,2-Dimethylpropionyl)-5-[2-(2-ethylaminoethanesulfonylamino)-ethyl]-5-phenyl-4,5-dihydro-1,3,4-thiadiazol-2-yl}-2,2-dimethylpropanamide], the GI50 in data set [1] is less than 10 µM.

In turn, `CC(=O)N1N=C(N2CCCCC2=O)SC1(CCNS(C)(=O)=O)c1ccccc1` (single isomer, unassigned; (-)) [Compound h, (−)-N-{2-[3-Acetyl-5-(2-oxopiperidino)-2-phenyl-2,3-dihydro-1,3,4-thiadiazol-2-yl]ethyl}methanesulfonamide] displayed a melting point of 169 to 171 °C. In data set [1], the GI50 is less than 10 µM.

For the compound `CCC(=O)N1N=C(NC(=O)C(C)(C)C)SC1(CCNS(C)(=O)=O)c1ccccc1` (single isomer, unassigned; (-)) [Compound b, (−)-N-[5-(2-Methanesulfonylaminoethyl)-5-phenyl-4-propionyl-4,5-dihydro-1,3,4-thiadiazol-2-yl]-2,2-dimethylpropanamide], the GI50 in data set [1] is less than 10 µM.

In the case of `CC(C)(C)C(=O)NC1=NN(C(=O)C(C)(C)C)C(CNS(=O)(=O)CCSCCN)(c2ccccc2)S1` (stereo not shown) [Compound 24, N-{5-[2-(2-Aminoethylsulfanyl)ethanesulfonylaminomethyl]-4-(2,2-dimethyl-propionyl)-5-phenyl-4,5-dihydro[1,3,4]thiadiazol-2-yl}-2,2-dimethyl-propionamide], in data set [1], the GI50 is less than 10 µM.

`CC(C)(C)C(=O)NC1=NN(C(=O)C(C)(C)C)C(CN)(c2ccccc2)S1` (stereo not shown) (as salt: hydrochloride) [Compound j, N-[5-Aminomethyl-4-(2,2-dimethylpropionyl)-5-phenyl-4,5-dihydro-1,3,4-thiadiazol-2-yl]-2,2-dimethylpropanamide] registered a melting point of 175 to 182 °C.

On to `CCNCCS(=O)(=O)NCC1(c2ccccc2)SC(NC(=O)C(C)(C)C)=NN1C(=O)C(C)(C)C` (single isomer, unassigned; (-)) [Compound l, (−)-N-[4-(2,2-Dimethylpropionyl)-5-(2-ethylaminoethanesulfonylaminomethyl)-5-phenyl-4,5-dihydro-1,3,4-thiadiazol-2-yl]-2,2-dimethylpropanamide], for which, in data set [1], the GI50 was less than 10 µM.

`CCC(=O)N1N=C(N2CCCC2=O)SC1(CCNS(C)(=O)=O)c1ccccc1` (single isomer, unassigned; (-)) [Compound e, (−)-N-{2-[5-(2-Oxopyrrolidin-1-yl)-2-phenyl-3-propionyl-2,3-dihydro-1,3,4-thiadiazol-2-yl]ethyl}methanesulfonamide]: the melting point is 188 to 191 °C. The GI50 in data set [1] is less than 10 µM.

Regarding `CC(C)(C)C(=O)NC1=NN(C(=O)C(C)(C)C)C(CCNS(C)(=O)=O)(c2ccccc2)S1` (single isomer, unassigned; (-)) [Compound a, (−)-N-[4-(2,2-Dimethylpropionyl)-5-(2-methanesulfonylaminoethyl)-5-phenyl-4,5-dihydro-1,3,4-thiadiazol-2-yl]-2,2-dimethylpropanamide], the GI50 in data set [1] is less than 10 µM.
